Laboratory results taken from US20070156046A1, “Method of enriching hyperpolarized atom nuclei and an apparatus for implementing the method” (priority 2004, published 2007).

Legend:
[1] = solubility (Ostwald coefficient) of ^129Xe in toluol and ethanol depending on the temperature of the solvent; format: physicochemical; conditions: for increase of the density compared to the gas phase: 180° K; for density of ^129Xe compared with the gas phase: about 240° K
Protocol: Solubility is defined as the density of the hyperpolarized gas in the solvent relative to the density of the hyperpolarized gas in the gas chamber situated above a given temperature and pressure. The solubility is also referred to as the Ostwald coefficient.
An even higher solubility of ^129Xe in the solvent is obtained by cooling to temperatures of 180° K, thereby obtaining a 100-fold increase of the density in both toluol and ethanol compared to the gas phase. Further cooling by just a few degrees Kelvin already results in an increase of the Ostwald coefficient to a value of 200 (FIG. 2).

[2] = ^129Xe densities in the solvent in the two-stage enrichment apparatus; format: physicochemical; conditions: solvent toluol/ethanol
Protocol: A gas mixture 1 with hyperpolarized atomic nuclei flows from a polarizer (not shown) into a first chamber 2 containing a cooled solvent. Chamber 2 has means for cooling the solvent. The solvent containing the gas mixture is thereby cooled to-a temperature T1, of, e.g. 180° K.
The gas components are enriched in chamber 2 according to their solubility in the solvent, and thus separated from one another. The unnecessary components of the mixture are released through valve 3. The solvent enriched with the hyperpolarized atomic nuclei is guided through a connection line out of chamber 2 into a further chamber 5. Chamber 5 comprises means for degassing, such as an apparatus for producing ultrasound and/or heating.
Chamber 5 thus represents a degassing chamber 5 for the hyperpolarized atomic nuclei from the solvent. In chamber 5, a gas pressure of the originally dissolved gas arises due to the degassing of the hyperpolarized atomic nuclei via the solvent. The gas pressure is determined by the partial pressure of the hyperpolarized atomic nuclei (gas component) in solvent chamber 2, and the ratio of the solubilities of this gas component in the solvent at temperatures T1 in chamber 2 and T2 in chamber 5.
Following degassing in chamber 5, the solution and degassing process may be repeated, as represented in FIG. 2 by continuous lines. For this, starting from chamber 5 at the end of the first enrichment stage, the gas with the hyperpolarized atomic nuclei is guided into chamber 6, where it is cooled to the temperature T1. Following enrichment in the solvent, the gas is conducted into chamber 8 with a temperature of T2 for degassing. Chamber 8, again, has a sufficient volume.
The following ^129Xe densities in the solvent (toluol/ethanol) may be set at different temperatures: […]

With `[Xe]` [^129Xe, xenon] the “increase of the density compared to the gas phase” value ([1]; in ethanol) was 100 fold, the “density of ^129Xe compared with the gas phase” value ([1]; in ethanol) was “ten times higher” and the “increase of the density compared to the gas phase” value ([1]; in toluol) was 100 fold. The “density of ^129Xe compared with the gas phase” value ([1]; in toluol) was “ten times higher”, the Ostwald coefficient ([1]; solvent ethanol, standard conditions (293° K, 1 bar)) was “about 2.5” and the Ostwald coefficient ([1]; solvent toluol, standard conditions (293° K, 1 bar)) was “about 5”. For the same molecule, the “solubility or Ostwald coefficient compared to at room temperature” value ([1]; temperature of 273° K, toluol and ethanol (FIG. 1)) was “clear increase”, the Ostwald coefficient ([1]; toluol and ethanol, further cooling by a few degrees Kelvin below 180° K) was 200 and the “pXe, Sol, Stage 1 (Chamber 2)” value ([2]; T = 180°K) was “pXe, Sol −7.0 bar”. The “pXe, Sol, Stage 2 (Chamber 6)” value ([2]; T = 180°K) was “˜20 bar”, the “pXe, Sol, Stage 1 (Chamber 2)” value ([2]; T = 200°K) was “pXe, Sol −2.1 bar” and the “pXe, Sol, Stage 2 (Chamber 6)” value ([2]; T = 200°K) was “˜10 bar”. The “pXe, Sol, Stage 1 (Chamber 2)” value ([2]; T = 240°K) was “pXe, Sol −0.7 bar” and the “pXe, Sol, Stage 2 (Chamber 6)” value ([2]; T = 240°K) was “˜3.5 bar”.
